Columns and labels:
[1] = tested on: CHO-EBNA1c (clone 3E7) cells; experiment: Effect of PKB (AKT) and valproic acid on transient gene expression (SEAP); format: cell-based, Chinese Hamster; settings: 0.25 mM VPA added 24 hours post-transfection; days 5 to 8 post-transfection
Experimental: (§1) Secreted alkaline phosphatase activity determination: SEAP activity is measured as previously described using the colorimetric substrate paranitrophenyl phosphate (Durocher et al, 2000).
Referring to FIG. 10, the effect of PKB (AKT) and valproic acid (VPA) on transient gene expression in CHO-EBNA1c (clone 3E7) cells is illustrated. The CHO-EBNA1c cells were transfected with a mixture of SEAP-encoding oriP plasmids (pTT-SEAP) and stuffer DNA or pTT-AKTdd vector (AKTdd is a dominant-positive mutant of AKT). In some cases, 0.25 mM VPA was added 24 hours post-transfection. SEAP activity (ΔA410/min) was measured at days 5 to 8 post-transfection.

[2] = tested on: HEK293-EBNA1t (clone 6E) cells; experiment: Effect of FGF2 co-expression on transient SEAP expression in HEK293-EBNA1t cells; format: cell-based, human; settings: 25% pTT-SEAP, 0-70% FGF2 plasmid; 7 days post-transfection
Experimental: as §1
(§2) Referring to FIG. 9, graphs are shown illustrating the effect of FGF2 (bFGF) co-expression on transient gene expression in HEK293-EBNA1t (clone 6E) cells (upper panel) and CHO-EBNA1c (clone 3E7) cells (lower panel). The HEK293-EBNA1t and CHO-EBNA1c cells were transfected with 25% pTT-SEAP vector and increasing amounts (0%, 15%, 30%, 45%, 60% and 70%) of FGF2-encoding pTT plasmid (the overall content of DNA was kept constant with non-coding stDNA). SEAP activity (OD/min at 410 nm) was measured in the supernatant 7 days post-transfection. From the upper panel it is evident that SEAP activity in HEK293-EBNA1t cells is decreased by co-expression of FGF2. From the lower panel it is evident that SEAP activity in CHO-EBNA1c cells is increased by co-expression of FGF2. […] Increased productivity in CHO cells may be due to a FGF-induced rRNA synthesis.

[3] = tested on: CHO-EBNA1c (clone 3E7) cells; experiment: Effect of FGF2 co-expression on transient SEAP expression in CHO-EBNA1c cells; format: cell-based, Chinese Hamster; settings: 25% pTT-SEAP, 0-70% FGF2 plasmid; 7 days post-transfection
Experimental: as §1, §2

Molecule	effect on transient gene expression (SEAP activity) [1]	SEAP activity on co-expression of FGF2 [2]	SEAP activity on co-expression of FGF2 [3]
CCCC(CCC)C(=O)O [valproic acid]	increases transient gene expression	–	–
FGF2	–	decreased	increased
